Results taken from patent US6858579B2, “Anti-inflammatory compounds” (William Harvey Research Limited, priority 2001, dated 2005).
Where no end group is shown, it is not given here.

How the values were obtained:
PMN migration = test: Mouse air-pouch model, zymosan-induced PMN migration; type: in vivo, mice; details: for activity in the in vivo animal model of inflammation: mouse air-pouch model, peptide s.c., result in words; for Approximate ED50, inhibition of PMN migration: mouse air-pouch, peptide s.c. 30 min prior to 1 mg zymosan, PMN counted 4 h after zymosan, n=15, P<0.01
Description: Male Swiss Albino mice (20-22 g body weight) were purchased from Interfauna (CFLP strain; Huntingdon, Cambridgeshire, UK) and maintained on a standard chow pellet diet with tap water ad libitum. Animals were used at least one week after arrival.
Air-pouches were formed on the back of the mice by subcutaneous (s.c.) injection of 2.5 ml or air on day […]. Three days after the last air-injection (6-day-old air-pouches) 1 mg of zymosan (in 0.5 ml of sterile saline) was injected locally (Perretti et al., 1996). Zymosan was previously boiled for 30 min in phosphate buffered solution (PBS), extensively washed in the same medium and stored at −20° C. prior to use.
Four hours after the local injection of zymosan, mice were killed by CO2 exposure and the air-pouches washed with 2 ml of PBS containing ethylenediaminetetracetic acid sodium salt (EDTA; 3 mM) and heparin (25 U/ml).
Lavage fluids (essentially the entire 2 ml were consistently recovered) were centrifuged at 200 g for 10 min at 4° C. and cell pellets were resuspended in 2 ml of PBS/EDTA+heparin. The number of PMN was determined, using a Neubauer haematocytometer, after staining (1:10 dilution) with Turk's solution (crystal violet 0.01% w/v in acetic acid 3% v/v).
The following peptides were drawn from the lipocortin 1 N-terminus region: LC12-26 (Ac-[…] (SEQ ID NO:6)), LC12-12 (Ac-AMVSEFLKQAW (SEQ ID NO:4)), LC1 13-25 (FIENEEQEYVQTV (SEQ ID NO:7)), LC12-6(Ac-AMVSE ((SEQ ID NO 3))), or scramble LC12-6 (AC-SVEMA (SEQ ID NO:5)) were administered s.c. 30 min prior to injection of 1 mg zymosan into the air-pouches. Control mice were treated with sterile PBS (100 μl s.c.).

A549 cell line = details: in vitro A549 model; previous publications (Croxtall et al., 1993, 1998); result in words; cited from earlier work

Substance: AC-SVEMA (SEQ ID NO:5) (Ac-SVEMA) [scrambled version of AMVSE, reference compound]
- activity in the in vivo animal model of inflammation (PMN migration): inactive

Substance: Ac-AMVSE ((SEQ ID NO 3)) [LC12-6, N-acetylated lipocortin 1 fragment, residues 2-6]
- activity in the in vivo animal model of inflammation (PMN migration): active
- Approximate ED50, inhibition of PMN migration (PMN migration): ~110 nmol

Substance: Ac-AMVSEFLKQAW (SEQ ID NO:4) [LC12-12, N-acetylated lipocortin 1 fragment, residues 2-12]
- activity in the in vivo animal model of inflammation (PMN migration): active
- Approximate ED50, inhibition of PMN migration (PMN migration): ~110 nmol

Substance: Ac-AMVSEFLKQAWFIENEEQEYVQTVK (SEQ ID NO:6) [LC12-26, reference compound]
- Approximate ED50, inhibition of PMN migration (PMN migration): ~45 nmol

Substance: EQEYVQTV (SEQ ID NO:2) [LC118-25, lipocortin 1 fragment, residues 18-25]
- inhibitory effect on A549 cell function (A549 cell line): significant inhibitory activity
